We go through 3 compounds from patent US20080317674A1, “Method and Reagent for Measuring Nitroreductase Enzyme Activity” (priority 2004, published 2008).

For one assay, the target named is T1, nitroreductase (NTR) (Escherichia coli, UniProt P38489).
T1 construct: expressed in transfected cells
Briefly: Nitroreductase gene reporter assay (adenoviral NF-κB NTR reporter, HeLa cells). Type of assay: cell-based. Particulars: control sample cells containing the reporter, no agonist, vs mock transduced cells. As to the method:
A reporter construct containing the NF-κB response element upstream of the NTR gene was constructed in pDC511 (Admax™). The reporter was packaged with AdS genomic DNA in helper cells, HEK293, and replication incompetent Adenovirus rescued.
HeLa cells were subcultured for twenty-four hours prior to viral transduction and incubated overnight at 37° C. in a humidified atmosphere of 5% CO2 in Dulbecco's Modified Eagles medium containing 10% foetal calf serum +2 mM L-glutamine. After the overnight incubation, the cells were detached from each flask with trypsin, pooled to produce a suspension of cells and the cell concentration determined. The HeLa cell suspension was mixed with virus at a predetermined multiplicity of infection (MOI) in a sufficient minimal volume of complete medium to cover the base of a tissue culture flask; typically 15 ml for 10^6 cells in a T75 cm^2 Costar flask. The cell/virus suspension was returned to the incubator and left overnight at 37° C. in a humidified atmosphere of 5% CO2. […] The cells were detached with trypsin and pooled to produce a suspension of transduced cells; the concentration of the cell suspension was determined and adjusted to 5.0×10^4 cells per ml. […] The fluorescence signal was monitored over time by means of a Tecan “Ultra” fluorimeter. All substrates were measured under identical conditions to avoid instrument artefacts. […]
For orientation: In a reporter assay the amount or activity of a reporter protein is the signal.

The next assay deals with T2, nitroreductase (Escherichia coli, UniProt P38489).
T2 construct: expressed in transfected cells
T2 sequence (P38489 whole entry): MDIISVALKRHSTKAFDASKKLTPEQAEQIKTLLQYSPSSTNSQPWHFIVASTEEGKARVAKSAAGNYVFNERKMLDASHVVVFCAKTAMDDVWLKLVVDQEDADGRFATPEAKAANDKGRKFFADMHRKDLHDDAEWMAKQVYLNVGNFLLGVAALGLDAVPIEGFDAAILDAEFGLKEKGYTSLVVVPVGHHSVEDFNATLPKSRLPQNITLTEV
Briefly: Live cell NTR assays, signal retention after fixation of cells. The format is cell-based. Particulars: live cell NTR assay, cells fixed. The source says: Further examples of the utility of nitro-substituted squaraine dyes (Compounds (2), (3) and (4)) as nitroreductase substrates are shown in live cell NTR assays, FIG. 5.

The target of another assay is NTR enzyme (Escherichia coli, UniProt P38489). Briefly: Shift in absorption maximum after action of NTR upon a substrate. Type of assay: biochemical. Here is the method: Compound (8) in DMSO (1 mMol) (4 μl ) was diluted into PBS buffer (0.01M) (1.76 ml). The UV/Vis spectrum of the solution was measured. The substrate has an absorbance maximum at 682 nm AU=0.22. To the solution was added NADH (0.01M in PBS) (200 μl) and NTR enzyme (446 ng/ml, 37 μl) the mixture was leave to stand at room temperature for 30 mins. After this time, the absorbance spectrum was re-measured. A new absorbance maximum at 621 nm, AU=0.17 is observed.
Chain of NTR enzyme (P38489 whole entry): as above

Each structure is given as a SMILES string.

T1 sequence (P38489 whole entry): as above

With `CN1/C(=C\C2=C([O-])C(=C\C3=[N+](Cc4cc([N+](=O)[O-])cc([N+](=O)[O-])c4)c4ccccc4C3(C)C)/C2=O)C(C)(C)c2ccccc21` [Compound (1), 2-(1-methyl-3,3-dimethyl-2-indolinylidenemethyl)-4-(1-(3,5-dinitrobenzyl)-3,3-dimethyl-2-indolinylidenemethyl)cyclobutenediylium-1,3-diolate], on nitroreductase (NTR), the “detection of basal transcriptional activity” value is “not sensitive enough to detect this low level activity”.
At nitroreductase, `CC[n+]1c(/C=C2/C(=O)C(/C=C3\N(CCOCCOC)c4ccccc4C3(C)C)=C2[O-])sc2cc([N+](=O)[O-])ccc21` [Compound (4), 2-(3-ethyl-6-nitro-2-benzothiazolinylidenemethyl)-4-(1-(2-(2-methoxyethoxy)ethyl)-3,3-dimethyl-2-indolinylidenemethyl)cyclobutenediylium-1,3-diolate] yielded a signal lost post-fixation of roughly 50%.
As to `C[n+]1c(C=C2C(=O)C(C=C3N(CCCCS(=O)(=O)O)c4ccc(S(=O)(=O)O)cc4C3(C)C)=C2[O-])ccc2cc([N+](=O)[O-])ccc21` [Compound (8), 2-((3,3-dimethyl-5-sulfo-1-(4-sulfobutyl)-1,3-dihydro-2H-indol-2-ylidene)methyl)-4-((1-methyl-6-nitroquinolinium-2-yl)methylene)-3-oxocyclobut-1-en-1-olate], the “new absorbance maximum after action of NTR” value at NTR enzyme (NADH and NTR enzyme added, room temperature, 30 mins) is 621 nm. Besides, at NTR enzyme (at 621 nm, NADH and NTR enzyme added, room temperature, 30 mins), the “absorbance at new maximum after action of NTR” value is recorded as 0.17 AU. Moreover, the “absorbance maximum of substrate” value at NTR enzyme (before NTR, PBS buffer 0.01M) worked out at 682 nm. Besides, the “absorbance at maximum of substrate” value at NTR enzyme (before NTR, at 682 nm, PBS buffer) is 0.22 AU.
